{"source": "patent US20030224467A1", "about": "“AIB1 as a prognostic marker and predictor of resistance to endocrine therapy” (priority 2002, published 2003)", "key": {"MCF-7 cells": {"tested_on": "MCF-7 cells", "test": "S-phase fraction of cells", "type": "cell-based, human", "settings": "agent alone"}, "primary breast cancer": {"tested_on": "primary breast cancer", "test": "Five-year disease-free survival of node-positive breast cancer patients on tamoxifen adjuvant therapy, by AIB1 and HER-2 status", "type": "in vivo, human", "method": "Frozen tumor specimens from 316 patients, all of whom had positive axillary lymph nodes at the time of initial surgery, were selected for study. Such patients have higher recurrence rates after primary treatment, resulting in more events for statistical power. […] The median follow-up for patients still living is 95 months. Proteins from 30 mg of tissue were extracted in 300 μl 5% SDS at 90° C. for 5 minutes. Protein concentration was determined using the BCA method (Pierce, Rockford, Ill.); typical yields were 2-5 μg/μl. Samples were stored at −70° C. until use.\nAssays were performed and results quantified by an investigator blinded to clinical information. 20 μg of extracted protein in sample buffer (0.05 M tris, pH 6.8, containing 2% SDS, 2.5% β-mercaptoethanol, 10% glycerol, and 0.1% bromphenol blue as tracking dye) were placed in boiling water for 2 minutes, cooled to room temperature, and centrifuged for 1 minute. An MCF-7 reference standard (5 μg protein per lane) was included on each gel as a normalization control. Proteins were electrophoresed on 8% Tricine-Glycine polyacrylamide gels (Invitrogen, Carlsbad, Calif.) and then transferred onto nitrocellulose. Blots were rinsed 5 minutes with TBS (TRIS-buffered saline: 100 mM TRIS, pH 7.5, and 0.9% NaCl) containing 0.1% Tween-20 (TBST). After blocking with 5% nonfat dry milk in TBST, the blots were incubated overnight at 4° C. in the primary antibody (1:1000 rabbit anti-RAC3 antiserum). This antibody was raised in rabbits against a MBP fusion protein containing amino acid residues 582-842 of human RAC3 (AIB1).\nThe blots were washed 3 times in TBST, followed by incubation for 1 hour in 5% nonfat dry milk in TBST and 1:5000 horseradish peroxidase labeled anti-rabbit Ig (Amersham, Piscataway, N.J.). The blots were washed 5 times in TBST, after which the labeled protein was visualized on a FluorChem digital imaging system (Alpha Innotech, San Leandro, Calif.) using an enhanced chemiluminescence detection system. Band intensities were measured densitometrically using the AlphaEaseFC software (Alpha Innotech, San Leandro, Calif.). AIB1 levels in tumors were normalized to the AIB1 concentration in the MCF-7 positive control lysate (5 μg) from the same immunoblot.\nER and progesterone receptors (PR) were measured by ligand binding assays as described by Harvey et al., 1999. S-phase fraction was calculated by DNA flow cytometry and classified as low, intermediate, or high (Wenger et al, 1998). Immunohistochemistry was used to semiquantitatively measure p53 and bcl 2 expression, and HER-2 expression was determined by western blot analyses as described by Elledge et al., 1997, and Tandon et al., 1989.\nAssociations between AIB1, steroid receptors, HER-2 and other molecular markers, and clinical variables were assessed using Spearman rank correlation. The disease-free survival (DFS) was calculated from the date of diagnosis. First recurrence (local or distant) was scored as an event, and patients without recurrence were censored at the time of last follow-up or death, meaning that an event of interest (e.g., recurrence or death) has not yet occurred. For graphical presentation, follow-up was truncated at 120 months. Overall survival was calculated from the date of diagnosis, with death from any cause being scored as an event. Patients who were alive at the last follow-up were censored at the last follow-up date. Survival curves were derived from Kaplan-Meier estimates, which are well known in the art, and the curves were compared by log-rank tests. Initially, separate analyses were performed for treated and untreated patients. The influence of AIB1 adjusted for other prognostic factors was assessed in multivariate analysis by Cox proportional hazards models."}, "[1]": {"tested_on": "AIB1 in MCF-7/HER-218 cells", "test": "Western blot mobility shift of AIB1", "type": "cell-based, human", "method": "(§1) In PPase treatment group, cell extracts were incubated with PPase prior to analysis as previously described. Antibody against AIB1 was used."}, "parental MCF-7 tumors": {"tested_on": "parental MCF-7 tumors", "test": "Parental MCF-7 tumor growth", "type": "in vivo, mice", "settings": "wild-type MCF-7, tamoxifen"}, "MCF-7/HER-218 cells": {"tested_on": "MCF-7/HER-218 cells", "test": "S-phase fraction of cells", "type": "cell-based, human", "settings": "agent alone"}, "[2]": {"tested_on": "ER, EGF-R, HER-2/neu, MAPK and AKT in parental MCF-7 cells", "test": "Phosphorylation analysis by western immunoblotting", "settings": "for Phosphorylation of EGF-R and HER-2/neu / Phosphorylation of ER on serine 118 / Phosphorylation of MAPK and AKT: short-term (20 minutes)", "experimental": "(§2) Treatments of cells with E2, 4HOT, EGF or HRG were conducted after cells were starved in phenol red-free, serum-free IMEM for 24 hr.\n(§3) Treated cells were then immediately harvested. Cells were first rinsed twice with cold PBS, and lysed in 1×cell lysis buffer (Cell Signaling Technology) supplemented with 10% Glycerol, 1 mM Pherryl Methylsulfonyl Fluoride (PMSF), 1×Complete Protease inhibitor mixture (Roche, Indianapolis, Ind.), 1 μM Okadaic acid, 10 μg/mL Microsystin as instruction from Cell Signaling Technology. Protein concentration was measured by Bio-Rad Protein Assay kit (Bio-Rad, Hercules, Calif.) according to manufacturer's instruction. 20 μg of protein extracts from individual treatments were electrophoresized on SDS-PAGE gel (Invitrogen), and electroblotted to nitrocellulose membrane (Millipore, Bedford, Mass.). Membranes were blocked with blocking buffer (5% w/v nonfat dry milk in 1×TBS with 0.1% Tween-20, TBST) for 1 hr and then incubated with primary antibody in 5% BSA TBST (for all phospho antibodies with gentle agitation overnight at 4° C., otherwise in blocking buffer for 2 hrs at room temperature). After washing and incubating with secondary horseradish peroxidase conjugated antibodies against mouse or rabbit IgG (Amershan, Arlington Heoghts, Ill. Immunoreactive proteins were detected by the ECL (Amershan). Quantitation was performed by using NIH Imagine Software."}, "[3]": {"tested_on": "estrogen responsive genes in wild-type MCF-7 cells", "test": "Endogenous estrogen responsive gene induction (immunoblot)", "settings": "12 hr induction", "text": "(§4) The cellharvest, cell extraction preparation and immunobloting were as above."}, "ER in MCF-7 cells": {"tested_on": "ER in MCF-7 cells", "test": "ERE luciferase reporter, ER dependent transcription", "type": "cell-based, human"}, "[4]": {"tested_on": "ER, EGF-R, HER-2/neu, MAPK and AKT in MCF-7/HER-218 cells", "test": "Phosphorylation analysis by western immunoblotting", "settings": "for Phosphorylation of EGF-R, HER-2/neu and MAPK / Phosphorylation of ER on serine 118: short-term (20 minutes)", "experimental": "as §2, §3"}, "[5]": {"tested_on": "phosphorylated MAPK, AIB1", "test": "Immunoblot of MCF-7/HER-218 tumors from treated mice", "experimental": "Treated cells were then immediately harvested. Cells were first rinsed twice with cold PBS, and lysed in 1×cell lysis buffer (Cell Signaling Technology) supplemented with 10% Glycerol, 1 mM Pherryl Methylsulfonyl Fluoride (PMSF), 1×Complete Protease inhibitor mixture (Roche, Indianapolis, Ind.), 1 μM Okadaic acid, 10 μg/mL Microsystin as instruction from Cell Signaling Technology. […] 20 μg of protein extracts from individual treatments were electrophoresized on SDS-PAGE gel (Invitrogen), and electroblotted to nitrocellulose membrane (Millipore, Bedford, Mass.). Membranes were blocked with blocking buffer (5% w/v nonfat dry milk in 1×TBS with 0.1% Tween-20, TBST) for 1 hr and then incubated with primary antibody in 5% BSA TBST (for all phospho antibodies with gentle agitation overnight at 4° C., otherwise in blocking buffer for 2 hrs at room temperature). After washing and incubating with secondary horseradish peroxidase conjugated antibodies against mouse or rabbit IgG (Amershan, Arlington Heoghts, Ill. Immunoreactive proteins were detected by the ECL (Amershan). Quantitation was performed by using NIH Imagine Software."}, "[6]": {"tested_on": "estrogen responsive genes in MCF-7/HER-218 cells", "test": "Endogenous estrogen responsive gene induction (immunoblot)", "settings": "for Protein expression of endogenous estrogen responsive genes: 12 hr induction", "text": "as §4"}, "[7]": {"tested_on": "HER-2/neu and MAPK in BT474 cells", "test": "Phosphorylation analysis by western immunoblotting", "settings": "20 minute treatment", "experimental": "as §3"}, "MCF-7/HER-218 tumors": {"tested_on": "MCF-7/HER-218 tumors", "test": "Athymic nude mouse model, MCF-7/HER-218 tumor growth", "type": "in vivo, mice", "settings": "continued estrogen, or estrogen withdrawal plus tamoxifen, compared to estrogen withdrawal alone", "experimental": "Ovariectomised female BALB/c-nu+/nu+ mice 4-5 weeks of age were purchased from Harlan Sprague-Dawley (Madison, Wis.). […] Estrogen pellets (0.25 mg, 21 day release) were purchased from Innovative Research (Rockville, Md.) and half a pellet placed subcutaneously in the interscapular area of each animal on the day prior to cell injection. MCF-7/HER-218 cells were grown in 150 cm^3 flasks and split 1:5 in DMEM (Invitrogen, Calif.) supplemented with 10% FBS. When flask cell confluence reached 90-100%, cells were harvested using a soft rubber scraper, then spun down at 1000 rpm for 3 minutes, and resuspended in the original media for injection. Cells were injected at 5×10^6−1×10^7 in 0.2 ml per animal in the right mammary fat pad. […] Each individual group had 8 animals (n=8). […] Tumors were subsequently measured weekly and recorded according to the formula: Tumor volume=width^2×length/2. Animal were weighed every 2 weeks and monitored for toxicity. Tumor growth curves were constructed using the mean of tumors' volume at each measurement point with the error bars representing the standard error of the mean. Student's t-test was used to compare data between two groups. Values are expressed as relative to tumor volume to size at the beginning of treatment as mean ±s.d."}, "[8]": {"tested_on": "pS2 promoter in MCF-7 cells", "test": "Chromatin immunoprecipitation on the pS2 promoter", "settings": "20 minute incubation", "experimental": "(§5) Wild type MCF7 and HER-2-18 cells were grown to 90% confluence in phenol red-free IMEM supplemented with 10% CDS FBS for 7 days, the cells were starved completely with phenol red-free IMEM (without serum) for overnight. […] Cells were pelleted and lysis in 1 ML SDS lysis buffer and incubated on ice for 10 min. Lysate was sonicated by three times for 10 sec. at maximum setting followed by centrifugation for 10 min at 4 C. 200 ul of supernatant was, subjected to each immunoprecipitation with specific antibody, diluted with ChIP dilution buffer 10 fold and pre-cleared with 80 ul of SS-DNA/Protein A/G agarose plus 20 ul of normal mouse or rabbit IgG (Santa Cruz) depending on primary antibody used afterward for 4 hrs at 4 C. The beads were collected and saved as normal IgG control. The pre-cleared supernatant was immunoprecipitated with antibodies against ER, or AIB1, or NcoR, or Act-H3, respectively at 4° C. for overnight, followed by SS-DNA/Protein A/G at 4 C. for 1 hr. Pellet agarose by gentle centrifugation (1000 rpm, 1 min, 4° C.). The pellets were intensively washed sequentially as follows in 1 ml volume: low salt wash buffer X 1 time, high salt wash buffer X 1 time, LiCl salt wash buffer X 1 time, TE X 2 times. […]"}, "[9]": {"tested_on": "pS2 promoter in MCF-7/HER-218 cells", "test": "Chromatin immunoprecipitation on the pS2 promoter", "settings": "20 minute incubation", "experimental": "as §5"}, "[10]": {"tested_on": "ER in MCF-7/HER-218 cells", "test": "ERE luciferase reporter, ER dependent transcription", "type": "cell-based, human"}, "AIB1 in MCF-7 cells": {"tested_on": "AIB1 in MCF-7 cells", "test": "Western blot mobility shift of AIB1", "type": "cell-based, human", "settings": "reversed by phosphatase treatment", "method": "as §1"}}, "note": "Entries after “also recorded” stand apart in the source; their conditions may differ.", "data": [{"compound": "CC/C(=C(\\c1ccccc1)c1ccc(OCCN(C)C)cc1)c1ccccc1", "note": "[tamoxifen]", "values": [{"measurement": "Percent of cells in S-phase", "setting": "MCF-7 cells", "value": "no agonist effect"}, {"measurement": "5 yr DFS", "setting": "primary breast cancer; High HER-2 (grade 2-4), High AIB1 (top quartile)", "value": 42, "unit": "%"}, {"measurement": "5 yr DFS", "setting": "primary breast cancer; High HER-2 (grade 2-4), High AIB1 (top quartile), listed as Tamoxifen", "value": 42, "unit": "%"}, {"measurement": "5 yr DFS", "setting": "primary breast cancer; High HER-2 (grade 2-4), Low AIB1 (lower 3 quartiles)", "value": 77, "unit": "%"}, {"measurement": "5 yr DFS", "setting": "primary breast cancer; High HER-2 (grade 2-4), Low AIB1 (lower 3 quartiles), listed as Tamoxifen", "value": 77, "unit": "%"}, {"measurement": "5 yr DFS", "setting": "primary breast cancer; Low HER-2 (grade 0-1), High AIB1 (top quartile)", "value": 82, "unit": "%"}, {"measurement": "5 yr DFS", "setting": "primary breast cancer; Low HER-2 (grade 0-1), Low AIB1 (lower 3 quartiles)", "value": 64, "unit": "%"}, {"measurement": "5-year DFS", "setting": "primary breast cancer; other three groups combined (not high AIB1 and high HER-2)", "value": 70, "unit": "%"}, {"measurement": "AIB1 phosphorylation (mobility shift of AIB1 band)", "setting": "[1]", "value": "phosphorylation of AIB1 was observed"}, {"measurement": "Tumor growth", "setting": "parental MCF-7 tumors", "value": "inhibited"}, {"measurement": "Fraction of cells in S-phase", "setting": "MCF-7/HER-218 cells", "value": "stimulated the fraction of cells in S-phase"}, {"measurement": "MAPK phosphorylation", "setting": "[2]; 48 hour treatment", "value": "no effect"}, {"measurement": "Phosphorylation of ER", "setting": "[2]; 48 hour treatment", "value": "still evident"}, {"measurement": "Phosphorylation of EGF-R and HER-2/neu", "setting": "[2]", "value": "could not detect phosphorylation"}, {"measurement": "Phosphorylation of ER on serine 118", "setting": "[2]", "value": "phosphorylate"}, {"measurement": "Phosphorylation of MAPK and AKT", "setting": "[2]", "value": "could not detect phosphorylation"}, {"measurement": "Protein expression of endogenous estrogen responsive genes", "setting": "[3]", "value": "no agonist activity"}, {"measurement": "ERE luciferase activity", "setting": "ER in MCF-7 cells; agent alone", "value": "no agonist activity"}, {"measurement": "MAPK phosphorylation", "setting": "[4]; 48 hour treatment", "value": "striking effects"}, {"measurement": "Phosphorylation of ER", "setting": "[4]; 48 hour treatment", "value": "still evident"}, {"measurement": "Phosphorylation of EGF-R, HER-2/neu and MAPK", "setting": "[4]", "value": "phosphorylation was detected"}, {"measurement": "Phosphorylation of ER on serine 118", "setting": "[4]", "value": "phosphorylated"}, {"measurement": "Total and phosphorylated AIB1 in tumors", "setting": "[5]; MCF-7/HER-218 tumors of treated mice", "value": "induced; also recorded: both higher"}, {"measurement": "Tumor level of phosphorylated (active) MAPK", "setting": "[5]; estrogen, or estrogen withdrawal plus tamoxifen, versus estrogen withdrawal alone", "value": "activate MAPK and high"}, {"measurement": "Protein expression of endogenous estrogen responsive genes", "setting": "[6]", "value": "behaved as an estrogen agonist on all of the genes"}, {"measurement": "Phosphorylated HER-2/neu and MAPK", "setting": "[7]", "value": "striking increase"}, {"measurement": "Tumor growth", "setting": "MCF-7/HER-218 tumors", "value": "increased tumor growth; also recorded: stimulated"}, {"measurement": "Occupancy of the pS2 promoter", "setting": "[8]", "value": "induced occupancy of this promoter by ER but not by AIB1"}, {"measurement": "Occupancy of the pS2 promoter", "setting": "[9]", "value": "induced occupancy of the pS2 promoter by ER and by AIB1"}, {"measurement": "ERE luciferase activity above control", "setting": "[10]; agent alone", "value": "inability"}]}, {"compound": "EGF: epidermal growth factor purchased from Invitrogen (NSDSECPLSHDGYCLHDGVCMYIEALDKYACNCVVGYIGERCQYRDLKWWELR; Epidermal growth factor; UniProt P01133 971-1023, looked up)", "values": [{"measurement": "Phosphorylation of EGF-R and HER-2/neu", "setting": "[2]", "value": "unable to detect phosphorylation"}, {"measurement": "Phosphorylation of ER on serine 118", "setting": "[2]", "value": "phosphorylate"}, {"measurement": "Phosphorylation of MAPK and AKT", "setting": "[2]", "value": "did phosphorylate MAPK and AKT"}, {"measurement": "Phosphorylation of EGF-R, HER-2/neu and MAPK", "setting": "[4]", "value": "phosphorylation was detected"}, {"measurement": "Phosphorylation of ER on serine 118", "setting": "[4]", "value": "phosphorylated"}]}, {"compound": "heregulin", "values": [{"measurement": "Percent of cells in S-phase", "setting": "MCF-7 cells", "value": "markedly increased the S-phase fraction"}, {"measurement": "AIB1 phosphorylation (mobility shift of AIB1 band)", "setting": "AIB1 in MCF-7 cells", "value": "upshifted the AIB1 band"}, {"measurement": "AIB1 phosphorylation (mobility shift of AIB1 band)", "setting": "[1]", "value": "phosphorylation of AIB1 was observed"}, {"measurement": "Fraction of cells in S-phase", "setting": "MCF-7/HER-218 cells", "value": "stimulated the fraction of cells in S-phase"}, {"measurement": "Phosphorylation of EGF-R and HER-2/neu", "setting": "[2]", "value": "strongly phosphorylated"}, {"measurement": "Phosphorylation of ER on serine 118", "setting": "[2]", "value": "phosphorylate"}, {"measurement": "Phosphorylation of MAPK and AKT", "setting": "[2]", "value": "strongly phosphorylated"}, {"measurement": "Protein expression of endogenous estrogen responsive genes", "setting": "[3]", "value": "induced the expression of all of the genes except for progesterone receptor"}, {"measurement": "ERE luciferase activity", "setting": "ER in MCF-7 cells; heregulin added to estrogen", "value": "two fold"}, {"measurement": "ERE luciferase activity", "setting": "ER in MCF-7 cells; heregulin added to tamoxifen", "value": "increase luciferase activity a small amount"}, {"measurement": "Phosphorylation of EGF-R, HER-2/neu and MAPK", "setting": "[4]", "value": "phosphorylation was detected"}, {"measurement": "Phosphorylation of ER on serine 118", "setting": "[4]", "value": "phosphorylated"}, {"measurement": "Protein expression of endogenous estrogen responsive genes", "setting": "[6]", "value": "dramatic effects on several of these genes"}, {"measurement": "Level of IRS1", "setting": "[6]; heregulin", "value": "large increase"}, {"measurement": "Protein expression of progesterone receptor", "setting": "[6]; heregulin", "value": "increased"}, {"measurement": "ERE luciferase activity in response to both estrogen and tamoxifen", "setting": "[10]; heregulin added", "value": "remarkably enhanced luciferase activity"}, {"measurement": "Estrogen agonist properties of tamoxifen (luciferase)", "setting": "[10]; heregulin added to tamoxifen", "value": "levels above estrogen alone"}]}]}
